Measurements published in patent publication US12516056B2, “Compounds for inhibition of janus kinase 1” (MANKIND PHARMA LTD., priority 2019, dated 2026).
Where two headings read alike, the source gives them in different places.

Columns and labels:
[1] = tested on: STAT5 phosphorylation by GMCSF in TF-1 cells; test: JAK cellular assay: STAT5 phosphorylation by GMCSF in TF-1 cells (HTRF); assay type: cell-based; conditions: TF-1 cells, GMCSF 5 ng/ml, pSTAT5 HTRF, read-out: Cell Based Assay (μM) TF-1/GMCSF/pSTAT5
Protocol: (§1) TF-1 cells were starved overnight in OptiMEM medium with 0.5% charcoal stripped fetal bovine serum, 0.1 mM nonessential amino acids (NEAA), 1 mM sodium pyruvate and without phenol red in CO2 incubator maintained at 37° c. Next day, cells were resuspended in RPMI without phenol red and dispensed into a 96 well plate at a final cell density of 1,20,000 cells per well. Compounds were diluted in DMSO and added to cells and incubated for 30 minutes in CO2 incubator maintained at 37° c. Final DMSO concentration in cell based assay was 0.2%. Human recombinant cytokines, IL-6 (30 ng/ml) and GMCSF (5 ng/ml) were added to the plate containing cells along with compound and incubated for 20 minutes with gentle tapping at every 5 minutes once. Compound mediated effects on STAT3 and STAT5 phosphorylation was measured in the lysates prepared by using CISBIO pSTAT3 and pSTAT5 detection kits by HTRF method. Background signal obtained from cells which were not activated with cytokines, was subtracted from vehicle controls and compound treated wells.

[2] = tested on: STAT3 phosphorylation by IL-6 in TF-1 cells; test: JAK cellular assay: STAT3 phosphorylation by IL-6 in TF-1 cells (HTRF); assay type: cell-based; conditions: IL-6 30 ng/ml, pSTAT3 HTRF, read-out: Cell Based Assay (μM) TF-1/IL-6/pSTAT3
Protocol: as §1

Recombinant JAK3 = molecular target: T1, Recombinant JAK3 (Homo sapiens, UniProt P52333); test: JAK biochemical assay (LANCE Ultra TR-FRET), JAK3; conditions: recombinant JAK3, TR-FRET; read-out: Biochemical Assay (μM) JAK3
T1 construct: purchased Carna Biosciences
T1 sequence (P52333 1-1124): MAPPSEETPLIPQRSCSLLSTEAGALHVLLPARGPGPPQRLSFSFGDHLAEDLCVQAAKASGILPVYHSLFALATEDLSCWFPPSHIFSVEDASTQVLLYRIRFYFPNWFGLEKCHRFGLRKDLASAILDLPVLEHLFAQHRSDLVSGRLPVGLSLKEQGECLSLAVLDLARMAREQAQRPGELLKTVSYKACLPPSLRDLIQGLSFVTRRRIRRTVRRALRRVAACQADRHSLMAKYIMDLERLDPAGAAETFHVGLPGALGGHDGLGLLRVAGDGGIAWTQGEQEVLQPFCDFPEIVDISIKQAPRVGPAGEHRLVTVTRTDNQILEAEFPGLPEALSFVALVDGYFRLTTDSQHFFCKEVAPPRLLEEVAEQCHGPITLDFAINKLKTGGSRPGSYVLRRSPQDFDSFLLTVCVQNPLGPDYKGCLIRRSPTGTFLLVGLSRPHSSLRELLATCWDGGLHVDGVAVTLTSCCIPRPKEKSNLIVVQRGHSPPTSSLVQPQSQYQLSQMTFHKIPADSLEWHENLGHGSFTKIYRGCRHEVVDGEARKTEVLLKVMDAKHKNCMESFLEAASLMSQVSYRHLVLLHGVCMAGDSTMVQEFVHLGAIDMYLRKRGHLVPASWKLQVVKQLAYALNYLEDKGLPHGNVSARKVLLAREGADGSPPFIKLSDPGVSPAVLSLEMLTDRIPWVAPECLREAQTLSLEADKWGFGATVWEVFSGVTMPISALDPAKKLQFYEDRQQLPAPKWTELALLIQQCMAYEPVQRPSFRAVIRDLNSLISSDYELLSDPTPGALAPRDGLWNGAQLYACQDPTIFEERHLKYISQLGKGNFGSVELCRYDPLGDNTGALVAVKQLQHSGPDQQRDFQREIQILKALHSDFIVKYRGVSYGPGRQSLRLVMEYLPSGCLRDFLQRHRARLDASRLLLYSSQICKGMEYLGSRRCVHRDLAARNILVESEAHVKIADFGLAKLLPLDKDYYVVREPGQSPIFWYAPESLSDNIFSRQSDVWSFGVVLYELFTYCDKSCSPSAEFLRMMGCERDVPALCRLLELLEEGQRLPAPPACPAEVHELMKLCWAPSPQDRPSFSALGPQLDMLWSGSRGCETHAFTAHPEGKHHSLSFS
Procedure, shortened: (§2)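 TR-FRET read-out of ULight substrate phosphorylation by recombinant kinase gives % inhibition relative to vehicle. The assay buffer is HEPES pH 7.5 with EGTA, MgCl2, DTT and Tween-20.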

Recombinant JAK1 = molecular target: T2, Recombinant JAK1 (Homo sapiens, UniProt P23458); test: JAK biochemical assay (LANCE Ultra TR-FRET), JAK1; conditions: recombinant JAK1, TR-FRET; read-out: Biochemical Assay (μM) JAK1
T2 construct: purchased Carna Biosciences
T2 sequence (P23458 whole entry): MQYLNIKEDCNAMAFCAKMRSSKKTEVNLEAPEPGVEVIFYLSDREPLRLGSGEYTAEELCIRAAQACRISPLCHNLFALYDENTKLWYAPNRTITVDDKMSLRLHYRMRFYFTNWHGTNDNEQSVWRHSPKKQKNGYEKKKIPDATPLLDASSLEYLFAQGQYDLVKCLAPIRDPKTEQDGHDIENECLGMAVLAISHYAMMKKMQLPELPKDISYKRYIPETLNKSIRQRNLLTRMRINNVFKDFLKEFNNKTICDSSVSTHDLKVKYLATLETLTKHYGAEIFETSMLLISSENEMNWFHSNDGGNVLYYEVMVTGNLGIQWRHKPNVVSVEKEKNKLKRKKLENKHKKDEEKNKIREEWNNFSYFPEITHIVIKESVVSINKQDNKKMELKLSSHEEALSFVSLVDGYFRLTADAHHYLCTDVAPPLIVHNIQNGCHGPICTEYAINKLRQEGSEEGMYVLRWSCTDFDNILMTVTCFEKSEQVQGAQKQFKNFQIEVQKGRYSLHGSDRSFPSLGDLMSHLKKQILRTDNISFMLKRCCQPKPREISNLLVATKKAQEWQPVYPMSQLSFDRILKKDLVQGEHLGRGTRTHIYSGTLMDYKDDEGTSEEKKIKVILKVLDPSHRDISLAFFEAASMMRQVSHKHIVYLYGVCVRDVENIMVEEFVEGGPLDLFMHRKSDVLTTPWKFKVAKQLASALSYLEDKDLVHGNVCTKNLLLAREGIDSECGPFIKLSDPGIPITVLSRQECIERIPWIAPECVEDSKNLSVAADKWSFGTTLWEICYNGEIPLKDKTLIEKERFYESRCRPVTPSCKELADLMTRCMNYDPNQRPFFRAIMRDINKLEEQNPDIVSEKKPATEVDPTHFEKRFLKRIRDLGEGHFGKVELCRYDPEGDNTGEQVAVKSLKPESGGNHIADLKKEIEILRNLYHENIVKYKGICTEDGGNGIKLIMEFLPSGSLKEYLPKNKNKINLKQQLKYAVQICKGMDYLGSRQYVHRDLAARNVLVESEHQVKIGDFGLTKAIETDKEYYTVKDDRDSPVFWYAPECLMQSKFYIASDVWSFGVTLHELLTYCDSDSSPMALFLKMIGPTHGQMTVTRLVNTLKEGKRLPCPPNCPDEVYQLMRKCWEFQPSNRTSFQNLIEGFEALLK
Procedure, shortened: as §2

Recombinant TYK2 = molecular target: T3, Recombinant TYK2 (Homo sapiens, UniProt P29597); test: JAK biochemical assay (LANCE Ultra TR-FRET), TYK2; conditions: recombinant TYK2, TR-FRET; read-out: Biochemical Assay (μM) TYK2
T3 construct: purchased Carna Biosciences
T3 sequence (P29597 whole entry): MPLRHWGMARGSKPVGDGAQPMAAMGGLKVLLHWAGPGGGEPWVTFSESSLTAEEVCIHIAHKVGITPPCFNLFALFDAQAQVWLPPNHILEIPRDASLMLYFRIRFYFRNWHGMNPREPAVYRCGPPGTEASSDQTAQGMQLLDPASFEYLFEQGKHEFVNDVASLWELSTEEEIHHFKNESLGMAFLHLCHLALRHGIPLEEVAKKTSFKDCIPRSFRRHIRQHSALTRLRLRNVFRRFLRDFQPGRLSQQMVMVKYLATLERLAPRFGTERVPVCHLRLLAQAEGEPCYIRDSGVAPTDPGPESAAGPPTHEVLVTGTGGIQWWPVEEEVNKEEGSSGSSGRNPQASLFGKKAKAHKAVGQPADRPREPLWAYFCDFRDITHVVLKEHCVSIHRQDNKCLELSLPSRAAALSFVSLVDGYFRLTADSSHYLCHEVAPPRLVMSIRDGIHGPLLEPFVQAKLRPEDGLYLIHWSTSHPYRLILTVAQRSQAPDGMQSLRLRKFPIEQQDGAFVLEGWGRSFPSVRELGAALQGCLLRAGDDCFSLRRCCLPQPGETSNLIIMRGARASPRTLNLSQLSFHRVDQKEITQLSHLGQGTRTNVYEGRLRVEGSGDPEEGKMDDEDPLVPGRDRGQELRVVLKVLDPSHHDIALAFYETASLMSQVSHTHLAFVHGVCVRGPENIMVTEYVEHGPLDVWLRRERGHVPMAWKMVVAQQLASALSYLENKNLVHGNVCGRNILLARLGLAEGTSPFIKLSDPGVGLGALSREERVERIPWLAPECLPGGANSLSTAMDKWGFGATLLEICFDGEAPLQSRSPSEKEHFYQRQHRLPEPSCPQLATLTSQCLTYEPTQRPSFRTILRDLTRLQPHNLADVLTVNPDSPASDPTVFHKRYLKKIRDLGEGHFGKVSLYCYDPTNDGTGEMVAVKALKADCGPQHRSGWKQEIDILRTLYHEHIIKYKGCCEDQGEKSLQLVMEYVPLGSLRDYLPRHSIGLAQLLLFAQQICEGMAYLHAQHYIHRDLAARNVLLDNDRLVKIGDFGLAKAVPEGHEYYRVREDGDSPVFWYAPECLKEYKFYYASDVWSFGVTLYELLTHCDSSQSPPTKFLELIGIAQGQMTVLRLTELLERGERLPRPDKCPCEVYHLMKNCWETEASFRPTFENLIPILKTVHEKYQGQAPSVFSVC
Procedure, shortened: as §2

Recombinant JAK2 = molecular target: T4, Recombinant JAK2 (Homo sapiens, UniProt O60674); test: JAK biochemical assay (LANCE Ultra TR-FRET), JAK2; conditions: recombinant JAK2, TR-FRET; read-out: Biochemical Assay (μM) JAK2
T4 construct: purchased Carna Biosciences
T4 sequence (O60674 whole entry): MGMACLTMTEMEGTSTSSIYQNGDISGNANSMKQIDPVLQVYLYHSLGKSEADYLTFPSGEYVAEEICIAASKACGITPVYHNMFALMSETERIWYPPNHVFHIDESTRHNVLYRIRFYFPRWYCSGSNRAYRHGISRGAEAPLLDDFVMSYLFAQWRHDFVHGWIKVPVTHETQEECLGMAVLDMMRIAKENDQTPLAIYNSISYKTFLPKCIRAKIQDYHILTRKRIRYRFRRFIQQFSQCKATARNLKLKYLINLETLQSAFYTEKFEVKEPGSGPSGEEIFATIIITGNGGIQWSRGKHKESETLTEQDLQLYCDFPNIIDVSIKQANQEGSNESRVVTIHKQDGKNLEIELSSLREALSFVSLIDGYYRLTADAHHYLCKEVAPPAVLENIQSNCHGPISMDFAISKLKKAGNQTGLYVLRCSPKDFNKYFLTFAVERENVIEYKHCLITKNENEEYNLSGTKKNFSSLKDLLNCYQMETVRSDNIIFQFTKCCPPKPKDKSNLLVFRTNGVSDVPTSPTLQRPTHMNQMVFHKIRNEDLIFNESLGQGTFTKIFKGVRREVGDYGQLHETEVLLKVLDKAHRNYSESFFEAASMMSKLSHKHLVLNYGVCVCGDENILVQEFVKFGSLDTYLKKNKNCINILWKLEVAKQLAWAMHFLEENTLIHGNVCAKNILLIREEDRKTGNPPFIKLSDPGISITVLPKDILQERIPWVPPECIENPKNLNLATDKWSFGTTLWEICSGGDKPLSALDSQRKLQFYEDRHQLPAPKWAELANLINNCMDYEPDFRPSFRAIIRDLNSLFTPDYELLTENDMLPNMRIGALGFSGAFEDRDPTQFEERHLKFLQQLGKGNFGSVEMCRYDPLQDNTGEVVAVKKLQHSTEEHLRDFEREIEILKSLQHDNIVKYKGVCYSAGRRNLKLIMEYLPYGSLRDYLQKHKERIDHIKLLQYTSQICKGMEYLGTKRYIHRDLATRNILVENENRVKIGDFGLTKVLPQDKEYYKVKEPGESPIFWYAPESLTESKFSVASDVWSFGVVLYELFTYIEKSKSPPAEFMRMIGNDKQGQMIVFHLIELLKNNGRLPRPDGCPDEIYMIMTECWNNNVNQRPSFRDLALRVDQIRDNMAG
Procedure, shortened: as §2

| SMILES | IC50 ([1]; Homo sapiens) [µM] | IC50 ([2]; Homo sapiens, TF-1, TF-1 cells) [µM] | IC50 (Recombinant JAK3) [µM] | IC50 (Recombinant JAK1) [µM] | IC50 (Recombinant TYK2) [µM] | IC50 (Recombinant JAK2) [µM] | IC50 [1] [µM] | IC50 ([2]; TF-1 cells) [µM] |
| --- | --- | --- | --- | --- | --- | --- | --- | --- |
| CCN1CC(C(O)(c2ccc(-n3cc(-c4ccnc5[nH]cnc45)cn3)nc2)C(F)(F)F)C1 (stereo not shown) [Example 1239, 1-(6-(4-(3H-imidazo[4,5-b]pyridin-7-yl)-1H-pyrazol-1-yl)pyridin-3-yl)-1-(1-ethylazetidin-3-yl)-2,2,2-trifluoroethanol] | 0.26 | 0.05 | 0.023 | 0.006 | 0.06 | 0.056 | – | – |
| OC(c1ccc(-n2cc(-c3ccnc4[nH]cnc34)cn2)nc1)(C1CCOCC1)C(F)(F)F (stereo not shown) [Example 1134, 1-(6-(4-(3H-imidazo[4,5-b]pyridin-7-yl)-1H-pyrazol-1-yl)pyridin-3-yl)-2,2,2-trifluoro-1-(tetrahydro-2H-pyran-4-yl)ethanol] | > 10 | > 1 | < 0.1 | < 0.1 | > 1 | – | – | – |
| CS(=O)(=O)CCC(C#N)c1ccc(-n2cc(-c3ccnc4[nH]cnc34)cn2)nc1 (stereo not shown) [Example 1116, 2-(6-(4-(3H-imidazo[4,5-b]pyridin-7-yl)-1H-pyrazol-1-yl)pyridin-3-yl)-4-(methylsulfonyl) butanenitrile] | > 10 | > 1 | > 0.1 | > 0.1 | > 1 | > 0.5 | – | – |
| O=C(C1CC1)N1CCC(C(O)(c2ccc(-n3cc(-c4ccnc5[nH]cnc45)cn3)nc2)C(F)(F)F)CC1 (stereo not shown) [Example 1220, (4-(1-(6-(4-(3H-imidazo[4,5-b]pyridin-7-yl)-1H-pyrazol-1-yl)pyridin-3-yl)-2,2,2-trifluoro-1-hydroxyethyl)piperidin-1-yl)(cyclopropyl)methanone] | > 1 | > 1 | < 0.1 | < 0.1 | > 0.5 | < 0.1 | – | – |
| CC(C)[C@@H](C#N)NC(=O)n1cc(-c2ccnc3[nH]c(=O)[nH]c23)cn1 [Example 1047, N-((S)-1-cyano-2-methylpropyl)-4-(2,3-dihydro-2-oxo-1H-imidazo[4,5-b]pyridin-7-yl)-1H-pyrazole-1-carboxamide] | 10 | 4.9 | < 0.5 | < 0.5 | < 0.5 | < 0.5 | – | – |
| N#CCOC(c1ccc(-n2cc(-c3ccnc4[nH]cnc34)cn2)nc1)C(F)(F)F (stereo not shown) [Example 1157, 2-(1-(6-(4-(3H-imidazo[4,5-b]pyridin-7-yl)-1H-pyrazol-1-yl)pyridin-3-yl)-2,2,2-trifluoroethoxy)acetonitrile] | > 10 | < 1 | < 0.1 | < 0.1 | > 0.5 | < 0.1 | – | – |
| COC(c1cccc(-n2cc(-c3ccnc4[nH]cnc34)cn2)n1)C(F)(F)F (stereo not shown) [Example 1171, 7-(1-(6-(2,2,2-trifluoro-1-methoxyethyl)pyridin-2-yl)-1H-pyrazol-4-yl)-3H-imidazo[4,5-b]pyridine] | > 10 | > 10 | > 1 | > 1 | > 1 | > 1 | – | – |
| N#CCCC1CCN(C(=O)n2cc(-c3ccnc4[nH]c(=O)[nH]c34)cn2)C1 (stereo not shown) [Example 1061, 3-(1-(4-(2-oxo-2,3-dihydro-1H-imidazo[4,5-b]pyridin-7-yl)-1H-pyrazole-1-carbonyl)pyrrolidin-3-yl)propanenitrile] | > 10 | > 10 | > 1 | > 1 | > 1 | – | – | – |
| O=C(NCC(F)(F)F)n1cc(-c2ccnc3[nH]c(=O)[nH]c23)cn1 [Example 1026, N-(2,2,2-trifluoroethyl)-4-(2,3-dihydro-2-oxo-1H-imidazo[4,5-b]pyridin-7-yl)-1H-pyrazole-1-carboxamide] | > 10 | > 1 | 0.283 | 0.041 | 0.122 | 0.048 | – | – |
| CS(=O)(=O)NCC(c1ccc(-n2cc(-c3ccnc4[nH]cnc34)cn2)nc1)C(F)(F)F (stereo not shown) [Example 1209] | > 1 | > 0.75 | < 0.1 | < 0.1 | > 1 | < 0.1 | – | – |
| CCN1CCC(C(O)(c2ccc(-n3cc(-c4ccnc5[nH]cnc45)cn3)nc2)C(F)(F)F)CC1 (stereo not shown) [Example 1221, 1-(6-(4-(3H-imidazo[4,5-b]pyridin-7-yl)-1H-pyrazol-1-yl)pyridin-3-yl)-1-(1-ethylpiperidin-4-yl)-2,2,2-trifluoroethanol] | > 1 | > 0.75 | < 0.1 | < 0.1 | > 0.1 | < 0.1 | – | – |
| N#CCC(c1ccc(-n2cc(-c3ccnc4[nH]cnc34)cn2)nc1)C(F)(F)F (stereo not shown) [Example 1123, 3-(6-(4-(3H-imidazo[4,5-b]pyridin-7-yl)-1H-pyrazol-1-yl)pyridin-3-yl)-4,4,4-trifluorobutanenitrile] | 10 | > 1 | > 0.1 | > 0.1 | > 1 | > 0.5 | – | – |
| N#CC(c1ccc(-n2cc(-c3ccnc4[nH]cnc34)cn2)nc1)N1CCS(=O)(=O)CC1 (stereo not shown) [Example 1113, 2-(6-(4-(3H-imidazo[4,5-b]pyridin-7-yl)-1H-pyrazol-1-yl)pyridin-3-yl)-2-(1,1-dioxidothiomorpholino)acetonitrile] | > 10 | > 10 | > 0.5 | > 1 | > 1 | > 0.1 | – | – |
| N#CC(c1ccc(-n2cc(-c3ccnc4[nH]cnc34)cn2)nc1)N1CCOCC1 (stereo not shown) [Example 1112, 2-(6-(4-(3H-imidazo[4,5-b]pyridin-7-yl)-1H-pyrazol-1-yl)pyridin-3-yl)-2-morpholinoacetonitrile] | > 10 | 10 | > 1 | – | > 1 | > 0.5 | – | – |
| CS(=O)(=O)CCC(C#N)NC(=O)n1cc(-c2ccnc3[nH]cnc23)cn1 (stereo not shown) [Example 1072, N-(1-cyano-3-(methylsulfonyl)propyl)-4-(3H-imidazo[4,5-b]pyridin-7-yl)-1H-pyrazole-1-carboxamide] | > 10 | > 10 | > 0.5 | > 0.5 | – | > 0.5 | – | – |
| CC(CC#N)NC(=O)n1cc(-c2ccnc3[nH]c(=O)[nH]c23)cn1 (stereo not shown) [Example 1053, N-(1-cyanopropan-2-yl)-4-(2,3-dihydro-2-oxo-1H-imidazo[4,5-b]pyridin-7-yl)-1H-pyrazole-1-carboxamide] | – | – | – | < 1 | > 1 | < 1 | > 10 | > 10 |
